Laboratory results as given in patent publication US20240132431A1, “METHOD FOR ALKYLATING ACIDIC FUNCTIONAL GROUP” (Chugai Seiyaku Kabushiki Kaisha, priority 2021, published 2024).

Biological target: T1, Bcl-2 protein (Recombinant Human Bcl-2 Protein) (Homo sapiens, UniProt P10415)
T1 construct: purchased Novus NBP2-34889
Test: Binding evaluation of mixture library compounds to Bcl-2 using AS-MS (affinity selection mass spectrometry)
Outline: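 ASMS Ratio (%) was calculated as (A−C)/B×100, where A is the protein sample after SEC, B the protein-free sample without SEC and C the protein-free sample after SEC. Each compound was at […] in a 1200-member pool with 20 μM Bcl-2, incubated 1 h at 23° C.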

T1 sequence (P10415 whole entry): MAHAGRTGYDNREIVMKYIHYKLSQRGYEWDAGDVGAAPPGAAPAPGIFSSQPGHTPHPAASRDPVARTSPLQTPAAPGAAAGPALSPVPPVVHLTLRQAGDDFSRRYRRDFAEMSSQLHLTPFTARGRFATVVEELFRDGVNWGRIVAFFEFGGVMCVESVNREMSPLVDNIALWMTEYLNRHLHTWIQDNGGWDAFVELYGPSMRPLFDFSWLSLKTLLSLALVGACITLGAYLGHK

SMILES | ASMS ratio (%) (n = 1) | ASMS ratio (%) (n = 2)
CCOc1cccc(-c2cc(OC)c(CN3CCN(c4ccc(C(=O)NS(=O)(=O)C(C)(C)C)nn4)CC3)c(OC)c2)c1 [B2L085-01, N-tert-Butylsulfonyl-6-[4-[[4-(3-ethoxyphenyl)-2,6-dimethoxyphenyl]methyl]piperazin-1-yl]pyridazine-3-carboxamide] | 0.0 | 0.0
CCOc1cccc(-c2cc(CN3CCN(c4ccc(C(=O)NS(=O)(=O)C(C)(C)C)nn4)CC3)cc(C(F)(F)F)c2)c1 [B2L087-01, N-tert-Butylsulfonyl-6-[4-[[3-(3-ethoxyphenyl)-5-(trifluoromethyl)phenyl]methyl]piperazin-1-yl]pyridazine-3-carboxamide] | 1.9 | −24.6
CCOc1cncc(-c2cc(CN3CCN(c4ccc(C(=O)NS(=O)(=O)C(C)(C)C)nn4)CC3)cc(C(F)(F)F)c2)c1 [B2L088-01, N-tert-Butylsulfonyl-6-[4-[[3-(5-ethoxypyridin-3-yl)-5-(trifluoromethyl)phenyl]methyl]piperazin-1-yl]pyridazine-3-carboxamide] | 0.0 | 2.8
CCOc1cccc(-c2cc(CN3CCN(c4ccc(C(=O)NS(=O)(=O)C(C)(C)C)nn4)CC3)cc(OC(F)(F)F)c2)c1 [B2L089-01, N-tert-Butylsulfonyl-6-[4-[[3-(3-ethoxyphenyl)-5-(trifluoromethoxy)phenyl]methyl]piperazin-1-yl]pyridazine-3-carboxamide] | 0.0 | 0.0
CCOc1cncc(-c2cc(CN3CCN(c4ccc(C(=O)NS(=O)(=O)C(C)(C)C)nn4)CC3)cc(OC(F)(F)F)c2)c1 [B2L090-01, N-tert-Butylsulfonyl-6-[4-[[3-(5-ethoxypyridin-3-yl)-5-(trifluoromethoxy)phenyl]methyl]piperazin-1-yl]pyridazine-3-carboxamide] | 0.0 | 0.0
CCOc1cccc(-c2ccc(CN3CCN(c4ccc(C(=O)NS(=O)(=O)C(C)(C)C)nn4)CC3)c3ccccc23)c1 [B2L091-01, N-tert-Butylsulfonyl-6-[4-[[4-(3-ethoxyphenyl)naphthalen-1-yl]methyl]piperazin-1-yl]pyridazine-3-carboxamide] | 0.0 | 0.0
CCOc1cncc(-c2ccc(CN3CCN(c4ccc(C(=O)NS(=O)(=O)C(C)(C)C)nn4)CC3)c3ccccc23)c1 [B2L092-01, N-tert-Butylsulfonyl-6-[4-[[4-(5-ethoxypyridin-3-yl)naphthalen-1-yl]methyl]piperazin-1-yl]pyridazine-3-carboxamide] | 5.5 | 7.8
CCOc1cccc(-c2csc(CN3CCN(c4ccc(C(=O)NS(=O)(=O)C(C)(C)C)nn4)CC3)c2)c1 [B2L093-01, N-tert-Butylsulfonyl-6-[4-[[4-(3-ethoxyphenyl)thiophen-2-yl]methyl]piperazin-1-yl]pyridazine-3-carboxamide] | – | 0.0
CCOc1cncc(-c2csc(CN3CCN(c4ccc(C(=O)NS(=O)(=O)C(C)(C)C)nn4)CC3)c2)c1 [B2L094-01, N-tert-Butylsulfonyl-6-[4-[[4-(5-ethoxypyridin-3-yl)thiophen-2-yl]methyl]piperazin-1-yl]pyridazine-3-carboxamide] | 0.2 | 1.8
CCOc1cccc(C#Cc2ccccc2CN2CCN(c3ccc(C(=O)NS(=O)(=O)C(C)(C)C)nn3)CC2)c1 [B2L095-01, N-tert-Butylsulfonyl-6-[4-[[2-[2-(3-ethoxyphenyl)ethynyl]phenyl]methyl]piperazin-1-yl]pyridazine-3-carboxamide] | 0.0 | 0.0
CCOc1cncc(C#Cc2ccccc2CN2CCN(c3ccc(C(=O)NS(=O)(=O)C(C)(C)C)nn3)CC2)c1 [B2L096-01, N-tert-Butylsulfonyl-6-[4-[[2-[2-(5-ethoxypyridin-3-yl)ethynyl]phenyl]methyl]piperazin-1-yl]pyridazine-3-carboxamide] | 0.0 | 0.0
